Here are results for five compounds from article PMC10343272, “Synthesis and Evaluation of ^99mTc-Labeled PSMA-Targeted Tracers Based on the Lys-Urea-Aad Pharmacophore for Detecting Prostate Cancer with Single Photon Emission Computed Tomography” (Molecules, 2023).

Molecules are shown by their SMILES. Read-outs that look alike come from different tables or passages of the source.

Usually Ki stands for the dissociation constant of the complex between target and ligand, obtained from inhibition or displacement.

In assay [1] the target is T1, PSMA (Homo sapiens, UniProt Q04609).
T1 construct: host or cells: LNCaP cells
The following applies: previous observation; cited from earlier work.

Assay [2] has as its target T1, PSMA. In words: In vitro competition binding assay ([^18F]DCFPyL displacement on LNCaP cells). The following applies: inhibition of [^18F]DCFPyL binding to PSMA-expressing LNCaP cells, n = 3. As for the experimental part: All tested PSMA-targeted ligands inhibited the binding of [^18F]DCFPyL to PSMA-expressing LNCaP cells in a concentration-dependent manner (Figure 2, n = 3).
The in vitro competition binding assays were performed following our previously published procedures. Briefly, LNCaP cells in RMPI medium with FBS, penicillin, and streptomycin were plated onto 24-well poly-D-lysine coated plates at 200,000 cells/well 48 h prior to binding assay. The growth medium was removed and the cells were rinsed with HEPES-buffered saline (50 mM HEPES, pH 7.5, 0.9% NaCl) two times before 400 µL of HEPES buffer were added to each well. Varying concentrations of PSMA-targeted ligands (50 µL) were added to each well in triplicate before adding 0.1 nmol/50 µL of [^18F]DCFPyL. After the additions, plates were incubated and swirled at 37 °C. After 1 h incubation, the solutions were removed, and cells were washed with HEPES-buffered saline twice. Finally, 400 µL of 0.25% trypsin solution were added to each well. After 10 min incubation, cells were collected for counting using a PerkinElmer (Waltham, MA, USA) Wizard2 2480 automatic gamma counter. The Ki values were analyzed with GraphPad (San Diego, CA, USA) Prism 7 software using nonlinear regression fit.

T1 sequence (Q04609 whole entry): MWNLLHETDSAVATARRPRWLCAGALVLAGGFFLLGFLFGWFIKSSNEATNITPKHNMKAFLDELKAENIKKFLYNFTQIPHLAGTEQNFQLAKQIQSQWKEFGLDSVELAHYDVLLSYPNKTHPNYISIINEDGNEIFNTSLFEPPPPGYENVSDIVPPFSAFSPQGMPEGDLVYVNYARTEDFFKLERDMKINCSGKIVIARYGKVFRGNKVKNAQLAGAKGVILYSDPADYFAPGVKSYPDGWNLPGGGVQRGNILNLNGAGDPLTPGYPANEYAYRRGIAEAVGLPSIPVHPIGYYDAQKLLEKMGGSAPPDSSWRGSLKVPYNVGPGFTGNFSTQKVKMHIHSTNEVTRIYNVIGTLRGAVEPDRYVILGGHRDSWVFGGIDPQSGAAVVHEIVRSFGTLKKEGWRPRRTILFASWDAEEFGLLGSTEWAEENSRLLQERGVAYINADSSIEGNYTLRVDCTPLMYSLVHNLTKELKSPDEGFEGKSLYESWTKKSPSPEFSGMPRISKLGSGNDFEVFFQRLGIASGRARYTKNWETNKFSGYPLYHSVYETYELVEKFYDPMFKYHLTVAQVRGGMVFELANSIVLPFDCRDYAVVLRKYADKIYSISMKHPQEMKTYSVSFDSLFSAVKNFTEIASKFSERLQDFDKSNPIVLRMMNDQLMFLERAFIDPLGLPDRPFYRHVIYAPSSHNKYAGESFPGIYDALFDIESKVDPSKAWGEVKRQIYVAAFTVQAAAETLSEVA

Take `O=C(O)CCC[C@H](NC(=O)N[C@@H](CCCCNC(=O)[C@H](Cc1c2ccccc2cc2ccccc12)NC(=O)[C@H]1CC[C@H](CNC(=O)CN2CCN(CC(=O)O)CCN(CC(=O)O)CCN(CC(=O)O)CC2)CC1)C(=O)O)C(=O)O` [HTK03149]: the Ki in assay [1] is 6.99 nM.

For the compound `NNc1ccc(C(=O)NC[C@H]2CC[C@H](C(=O)N[C@@H](Cc3c4ccccc4cc4ccccc34)C(=O)NCCCC[C@H](NC(=O)N[C@@H](CCCC(=O)O)C(=O)O)C(=O)O)CC2)cn1` [HTK03180], affinity in assay [2] was put at a Ki of 11.6 ± 1.5 nM.

With `NNc1ccc(C(=O)N[C@@H](Cc2ccc3ccccc3c2)C(=O)NCCCC[C@H](NC(=O)N[C@@H](CCC(=O)O)C(=O)O)C(=O)O)cn1` [HYNIC-iPSMA, reference compound], the Ki in assay [2] is 3.11 nM.

As to `NNc1ccc(C(=O)NC[C@H]2CC[C@H](C(=O)N[C@@H](Cc3c4ccccc4cc4ccccc34)C(=O)NCCCC[C@H](NC(=O)N[C@@H](CCC(=O)O)C(=O)O)C(=O)O)CC2)cn1` [KL01099], the Ki in assay [2] came to 10.7 nM.

With `NNc1ccc(C(=O)N[C@@H](Cc2ccc3ccccc3c2)C(=O)NCCCC[C@H](NC(=O)N[C@@H](CCCC(=O)O)C(=O)O)C(=O)O)cn1` [KL01127], in assay [2], the Ki turned out to be 8.96 ± 0.58 nM.
